Measured values as given in publication PMC7143549, “Anticancer Activities of Meroterpenoids Isolated from the Brown Alga Cystoseira usneoides against the Human Colon Cancer Cells HT-29” (Foods, 2020).
Values after ≈ are worked out from the molar mass of the structure shown.

Tests used:
p-AKT in HT-29 cells = test: Western blot of phosphorylated AKT; assay type: cell-based, human; conditions: 24 h; 10 and 20 μg/mL for 1, 2, 5, 6, 7, 8; 30 and 60 μg/mL for 3 and 4
Description: (§1) Cells were cultured to 80% confluence at 37 °C. After 24 h of treatment with the compounds (10 and 20 µg/mL for compounds 1, 2, 5, 6, 7, and 8, and 30 and 60 µg/mL for compounds 3 and 4), HT-29 cells were rinsed twice with ice-cold PBS, and then lysed immediately in lysis buffer (250 mM NaCl, 50 mM Tris (pH 7.5), 0.5 mM EDTA, 5 mM EGTA, 8 mM MgCl2, 1 mM PMSF, 0.01 mg/mL pepstatin A, 0.01 mg/mL leupeptin, 0.01 mg/mL aprotinin, 1% Triton X-100). After centrifugation at 12,000 g for 3 min at 4°C to separate the cellular debris, the supernatant was collected and stored at −80°C until use. The protein concentrations were determined using Bio-Rad Protein Assay (BioRad, Richmond, CA, USA), according to the manufacturer’s instructions.
(§2) Equal protein content (50 μg) samples of cell lysates were separated on 10% SDS–polyacrylamide gel and transferred to polyvinylidene difluoride membranes (Hybond-P, Amershan Biosciences, Little Chalfont, UK). The membranes were blocked with 5% (w/v) non-fat dry milk in Tris-buffered saline containing 0.1% Tween-20 buffer (pH 7.4) (TBST) for 1 h at room temperature and incubated with agitation with specific antibodies: anti-pERK1/2 (Cell Signaling; 1:1000), anti-pJNK (Cell Signaling; 1:1000), anti-pAKT (Cell Signaling; 1:1000), anti-β-actin (Sigma-Aldrich; 1:500). Membranes were incubated overnight at 4°C with gentle shaking. The secondary antibody was a peroxidase-conjugated goat anti-mouse or -rabbit antibody (1:10,000; DakoCytomation, Carpinteria, CA, USA). After washing the membrane three times in TBST buffer (10 min), the signals were detected using an enhanced chemiluminescence light-detecting kit (Super-Signal West Pico Chemiluminescent Substrate, Pierce, IL, USA), according to the manufacturer’s instructions and exposed to an X-ray film (GE Healthcare Ltd., Amersham, UK). The protein band densities were analyzed and quantified with a Scientific Imaging Systems (Biophotonics ImageJ Analysis Software, National Institute of Mental Health, Bethesda, MD, USA). β-actin was used to confirm the equal loading and transfer of proteins.

p-JNK in HT-29 cells = test: Western blot of phosphorylated JNK; assay type: cell-based, human; conditions: 24 h; 10 and 20 μg/mL for 1, 2, 5, 6, 7, 8; 30 and 60 μg/mL for 3 and 4
Description: as §1, §2

[1] = test system: normal human colonic epithelial cells CCD 841 CoN; test: Sulforhodamine B (SRB) cell viability assay, CCD 841 CoN; assay type: cell-based; conditions: normal colon cells, 72 h of treatment, mean ± SE of three experiments, read-out: IC50 CCD841 CoN
Description: (§3) Cell viability was quantified using the Sulforhodamine B assay described by Skehan et al.. Cells were plated with a density of 5 × 10^3 (HT-29) and 1 × 10^4 (CCD 841 CoN) cells/well and allowed to attach at 37 °C in an atmosphere with 5% CO2. After 24 h, the AMTs dissolved in DMSO were added to the cells (final concentrations of 10, 20, 30, and 50 µg/mL and less than 0.05% of DMSO) and the plates were incubated for 72 h. Then, the cells were fixed by adding 50 μL of TCA (50%) to each well and the plates were maintained for 1 h at 4 °C. The plates were washed five times with deionized water, air-dried, and stained for 30 min at room temperature with 100 μL of 0.4% (w/v) SRB prepared in 1% (v/v) acetic acid. The plates were rinsed quickly five times with 1% acetic acid to remove unbound dye, followed by air-drying. The bound dye was solubilized in 2 mM Tris base (100 μL/well) for 5 min. Optical densities were read on a microplate reader (Spectrophotometer LabsystemsMultiskan EX, λ 492 nm). Three independent assays were conducted, each one in duplicate. A standard curve was constructed for each experiment and used for converting the measured optical density values into numbers of viable cells/well. The inhibition rate was used to evaluate the cell viability and its algorithm was the following formula: ((ODcontrol − ODtreatment)/ODcontrol) × 100; OD, optical density. The OD492 for control cells was taken as 100% viability. The half maximal inhibitory concentration (IC50) was calculated. The selectivity index (SI) of each compound was calculated as IC50 of the compound against the CCD 841 CoN normal cell line/IC50 of the same compound against the HT-29 cancer cell line.

[2] = test system: HT-29 human colon carcinoma cells; test: Sulforhodamine B (SRB) cell viability assay, HT-29; assay type: cell-based; conditions: for IC50: Homo sapiens, HT-29, 72 h; for IC50 / IC50 HT-29: colon cancer cells, 72 h of treatment, SRB, mean ± SE of three experiments; for Selectivity Index (SI): IC50 for normal cells CCD 841 CoN / IC50 for cancer cells HT-29
Description: as §3

HT-29 cells = test: Cultrex 96 well BME cell invasion assay; assay type: cell-based; conditions: Homo sapiens, 24 h; for inhibition at 10 µg/mL: 10 μg/mL
Description: The invasion activities were measured using Trevigen’s Cultrex® 96 Well Cell Invasion Assays, as previously described. Briefly, about 50 μL of 1X basement membrane extract (BME) in coat buffer was added to each well. After incubation for 4 h at 37 °C in a 5% CO2 atmosphere, the HT-29 cells at 50,000 cells/50μL in serum free McCoy’s medium were added per well to the top chamber containing the tested compound (10 µg/mL for 1, 2, 5, 6, 7, and 8, and 30 µg/mL for compounds 3 and 4). About 150 μL of McCoy’s medium was then added to the lower chamber containing 10% FBS and penicillin/streptomycin as chemoattractants. Cells were allowed to migrate to the lower chamber in a humidified atmosphere containing 5% CO2 at 37 °C for 24 h. Afterwards, top and bottom chambers were aspirated and washed with washing buffer supplemented with the kit. About 100 μL of Cell Dissociation Solution/Calcein-AM was added to each bottom chamber well and incubated for 1 h at 37 °C in CO2 incubator. The cells internalized calcein-AM and the intracellular esterases cleaved the AM moiety to generate free calcein. Fluorescence of the samples was determined at 485 nm excitation, 520 nm emission, using ELISA plate reader (BioTek Instruments, Winooski, VT, USA). The number of cells that had invaded through the BME coat was calculated using a standard curve. Results were expressed as percentage of invasion (%) compared to the control.

| IC50 [2] | IC50 HT-29 [2] | Compound | expression of p-AKT protein vs control (p-AKT in HT-29 cells) | phospho-JNK level vs control (p-JNK in HT-29 cells) | IC50 [1] | Selectivity Index (SI) [2] | inhibition at 10 µg/mL (HT-29 cells) | inhibition at 30 µg/mL (HT-29 cells; 30 μg/mL (methods, Figure 5C)) |
| --- | --- | --- | --- | --- | --- | --- | --- | --- |
| 14 ± 1.33 µg/mL (≈ 29.6 µM) |  | COc1c(C)cc(O)cc1/C=C/C(C)(O)CC(=O)/C=C(/C)CCCC(C)C(=O)/C=C/C(C)(C)O (centres unmarked) [Compound 7, cystodione A] | significantly downregulated | decreased phosphorylation | > 50 µg/mL | >3.57 |  |  |
| 9.14 µg/mL (≈ 19.3 µM) | 9.08 ± 1.04 µg/mL (≈ 19.2 µM) | COc1c(C)cc(O)cc1/C=C/C(C)(O)CC(=O)/C=C(\C)CCCC(C)C(=O)/C=C/C(C)(C)O (centres unmarked) [Compound 8, cystodione B] | significantly downregulated | decreased phosphorylation | 31.9 ± 7.51 µg/mL (≈ 67.5 µM) | 3.51 | > 40% |  |
| 36.9 µg/mL (≈ 103 µM) | 34.34 ± 1.81 µg/mL (≈ 95.8 µM) | COc1c(C)cc(O)cc1C/C=C(\C)CC(=O)/C=C(\C)CCCC(C)=O [Compound 3, cystomexicone B] | significantly downregulated | decreased phosphorylation | > 50 µg/mL | >1.45 |  | > 40% |

The next lines start with the compound.

| Compound | IC50 [2] | IC50 HT-29 [2] | expression of p-AKT protein vs control (p-AKT in HT-29 cells) | phospho-JNK level vs control (p-JNK in HT-29 cells) | IC50 [1] | Selectivity Index (SI) [2] | inhibition at 10 µg/mL (HT-29 cells) | inhibition at 30 µg/mL (HT-29 cells; 30 μg/mL (methods, Figure 5C)) |
| --- | --- | --- | --- | --- | --- | --- | --- | --- |
| COc1c(C)cc(O)cc1C/C=C(\C)CC(=O)/C=C(\C)CCCC(C)(O)C(=O)/C=C/C(C)(C)O (centres unmarked) [Compound 2, 11-hydroxy-1′-O-methylamentadione] | 9.14 ± 0.23 µg/mL (≈ 19.3 µM) |  | significantly downregulated | decreased phosphorylation | 21.4 ± 2.5 µg/mL (≈ 45.3 µM) | 2.34 |  |  |
| COc1c(C)cc(O)cc1C/C=C(\C)CC(=O)/C=C(/C)CCCC(C)(O)C(=O)/C=C/C(C)(C)O (centres unmarked) [Compound 1, usneoidone Z] | 8.81 ± 1.55 µg/mL (≈ 18.6 µM) |  | significantly downregulated |  | 46.4 ± 3.87 µg/mL (≈ 98.2 µM) | 5.26 | > 40% |  |
